In the NIST ThermoML archive (doi:10.1021/acs.jced.8b00132):
Values joined by “and” are separate entries in the source; they are usually repeats but may differ in a detail not shown here. Equal entries are not always repeated. Numbers after ± are expanded uncertainties.

Conditions: transient hot wire

O=C(C(F)(F)C(F)(F)F)C(F)(C(F)(F)F)C(F)(F)F [dodecafluoro-2-methylpentan-3-one]
thermal conductivity (301.59 K, 15869 kPa, Liquid): 0.06313 ± 0.0013 W/m/K
thermal conductivity (301.6 K, 48023 kPa, Liquid): 0.07341 ± 0.0015 W/m/K
thermal conductivity (301.6 K, 48035 kPa, Liquid): 0.07339 ± 0.0015 W/m/K
thermal conductivity (301.61 K, 9935 kPa, Liquid): 0.06132 ± 0.0013 W/m/K
thermal conductivity (301.61 K, 9939 kPa, Liquid): 0.0613 ± 0.0013 W/m/K
thermal conductivity (301.63 K, 185 kPa, Liquid): 0.05695 ± 0.0012 W/m/K
thermal conductivity (301.63 K, 186 kPa, Liquid): 0.05695 ± 0.0012 W/m/K
thermal conductivity (301.65 K, 38555 kPa, Liquid): 0.07081 ± 0.0015 W/m/K
thermal conductivity (301.65 K, 38556 kPa, Liquid): 0.07081 ± 0.0015 W/m/K
thermal conductivity (301.66 K, 4510 kPa, Liquid): 0.05903 ± 0.0012 W/m/K
thermal conductivity (301.67 K, 181 kPa, Liquid): 0.05696 ± 0.0012 W/m/K and 0.05695 ± 0.0012 W/m/K
thermal conductivity (301.67 K, 4513 kPa, Liquid): 0.05926 ± 0.0012 W/m/K
thermal conductivity (301.68 K, 68591 kPa, Liquid): 0.07706 ± 0.0016 W/m/K
thermal conductivity (301.68 K, 68604 kPa, Liquid): 0.07747 ± 0.0016 W/m/K
thermal conductivity (301.69 K, 29956 kPa, Liquid): 0.06826 ± 0.0014 W/m/K
thermal conductivity (301.69 K, 29958 kPa, Liquid): 0.06828 ± 0.0014 W/m/K
thermal conductivity (301.69 K, 68130 kPa, Liquid): 0.07843 ± 0.0016 W/m/K
thermal conductivity (301.7 K, 58476 kPa, Liquid): 0.07534 ± 0.0015 W/m/K
thermal conductivity (301.7 K, 68201 kPa, Liquid): 0.07832 ± 0.0016 W/m/K
thermal conductivity (301.71 K, 22368 kPa, Liquid): 0.06584 ± 0.0014 W/m/K and 0.06583 ± 0.0014 W/m/K
thermal conductivity (301.71 K, 48170 kPa, Liquid): 0.07234 ± 0.0015 W/m/K
thermal conductivity (301.71 K, 58480 kPa, Liquid): 0.07563 ± 0.0015 W/m/K
thermal conductivity (301.72 K, 15988 kPa, Liquid): 0.06294 ± 0.0013 W/m/K
thermal conductivity (301.72 K, 15989 kPa, Liquid): 0.0629 ± 0.0013 W/m/K
thermal conductivity (301.72 K, 48184 kPa, Liquid): 0.07274 ± 0.0015 W/m/K
thermal conductivity (301.73 K, 38646 kPa, Liquid): 0.06956 ± 0.0014 W/m/K
thermal conductivity (301.73 K, 38651 kPa, Liquid): 0.0696 ± 0.0014 W/m/K
thermal conductivity (301.75 K, 9736 kPa, Liquid): 0.06053 ± 0.0013 W/m/K
thermal conductivity (301.75 K, 59377 kPa, Liquid): 0.07624 ± 0.0016 W/m/K
thermal conductivity (301.75 K, 59380 kPa, Liquid): 0.07624 ± 0.0016 W/m/K
thermal conductivity (301.75 K, 68800 kPa, Liquid): 0.07711 ± 0.0016 W/m/K
thermal conductivity (301.76 K, 9735 kPa, Liquid): 0.06062 ± 0.0013 W/m/K
thermal conductivity (301.76 K, 15639 kPa, Liquid): 0.06344 ± 0.0013 W/m/K
thermal conductivity (301.76 K, 29978 kPa, Liquid): 0.06731 ± 0.0014 W/m/K
thermal conductivity (301.76 K, 68808 kPa, Liquid): 0.07639 ± 0.0016 W/m/K
thermal conductivity (301.77 K, 15644 kPa, Liquid): 0.06346 ± 0.0013 W/m/K
thermal conductivity (301.78 K, 121 kPa, Liquid): 0.05702 ± 0.0012 W/m/K and 0.05701 ± 0.0012 W/m/K
thermal conductivity (301.79 K, 4434 kPa, Liquid): 0.05801 ± 0.0012 W/m/K
thermal conductivity (301.79 K, 4440 kPa, Liquid): 0.05822 ± 0.0012 W/m/K
thermal conductivity (301.79 K, 22438 kPa, Liquid): 0.06507 ± 0.0013 W/m/K
thermal conductivity (301.79 K, 22452 kPa, Liquid): 0.06502 ± 0.0013 W/m/K
thermal conductivity (301.82 K, 102 kPa, Liquid): 0.05674 ± 0.0012 W/m/K
thermal conductivity (301.82 K, 48012 kPa, Liquid): 0.07336 ± 0.0015 W/m/K
thermal conductivity (301.82 K, 48021 kPa, Liquid): 0.07338 ± 0.0015 W/m/K
thermal conductivity (301.83 K, 95 kPa, Liquid): 0.05685 ± 0.0012 W/m/K
thermal conductivity (301.85 K, 9941 kPa, Liquid): 0.06128 ± 0.0013 W/m/K
thermal conductivity (301.85 K, 9948 kPa, Liquid): 0.06126 ± 0.0013 W/m/K
thermal conductivity (301.87 K, 38549 kPa, Liquid): 0.07078 ± 0.0015 W/m/K
thermal conductivity (301.87 K, 38555 kPa, Liquid): 0.07047 ± 0.0014 W/m/K
thermal conductivity (301.88 K, 34 kPa, Gas): 0.01211 ± 0.0023 W/m/K
thermal conductivity (301.88 K, 35 kPa, Gas): 0.01203 ± 0.0028 W/m/K
thermal conductivity (301.9 K, 185 kPa, Liquid): 0.05689 ± 0.0012 W/m/K
thermal conductivity (301.91 K, 185 kPa, Liquid): 0.05664 ± 0.0012 W/m/K
thermal conductivity (301.91 K, 4509 kPa, Liquid): 0.059 ± 0.0012 W/m/K
thermal conductivity (301.91 K, 29959 kPa, Liquid): 0.06823 ± 0.0014 W/m/K
thermal conductivity (301.91 K, 67990 kPa, Liquid): 0.07824 ± 0.0016 W/m/K
thermal conductivity (301.91 K, 68063 kPa, Liquid): 0.07829 ± 0.0016 W/m/K
thermal conductivity (301.92 K, 29958 kPa, Liquid): 0.06824 ± 0.0014 W/m/K
thermal conductivity (301.93 K, 181 kPa, Liquid): 0.05689 ± 0.0012 W/m/K and 0.05687 ± 0.0012 W/m/K
thermal conductivity (301.94 K, 4507 kPa, Liquid): 0.05898 ± 0.0012 W/m/K
thermal conductivity (301.95 K, 22372 kPa, Liquid): 0.06576 ± 0.0014 W/m/K
thermal conductivity (301.95 K, 22377 kPa, Liquid): 0.06549 ± 0.0014 W/m/K
thermal conductivity (301.97 K, 59371 kPa, Liquid): 0.07623 ± 0.0016 W/m/K
thermal conductivity (301.97 K, 59377 kPa, Liquid): 0.07622 ± 0.0016 W/m/K
thermal conductivity (302.01 K, 15644 kPa, Liquid): 0.06317 ± 0.0013 W/m/K
thermal conductivity (302.01 K, 15646 kPa, Liquid): 0.06342 ± 0.0013 W/m/K
thermal conductivity (302.03 K, 121 kPa, Liquid): 0.05696 ± 0.0012 W/m/K
thermal conductivity (302.04 K, 15871 kPa, Liquid): 0.0631 ± 0.0013 W/m/K
thermal conductivity (302.04 K, 15874 kPa, Liquid): 0.0632 ± 0.0013 W/m/K
thermal conductivity (302.04 K, 48005 kPa, Liquid): 0.07334 ± 0.0015 W/m/K
thermal conductivity (302.05 K, 48000 kPa, Liquid): 0.07334 ± 0.0015 W/m/K
thermal conductivity (302.09 K, 9944 kPa, Liquid): 0.06121 ± 0.0013 W/m/K
thermal conductivity (302.09 K, 68569 kPa, Liquid): 0.07801 ± 0.0016 W/m/K
thermal conductivity (302.09 K, 68583 kPa, Liquid): 0.07807 ± 0.0016 W/m/K
thermal conductivity (302.1 K, 9951 kPa, Liquid): 0.06119 ± 0.0013 W/m/K
thermal conductivity (302.1 K, 38544 kPa, Liquid): 0.07073 ± 0.0015 W/m/K
thermal conductivity (302.11 K, 38546 kPa, Liquid): 0.07074 ± 0.0015 W/m/K
thermal conductivity (302.13 K, 58450 kPa, Liquid): 0.07511 ± 0.0015 W/m/K
thermal conductivity (302.13 K, 58453 kPa, Liquid): 0.07504 ± 0.0015 W/m/K
thermal conductivity (302.15 K, 15982 kPa, Liquid): 0.0631 ± 0.0013 W/m/K
thermal conductivity (302.15 K, 29954 kPa, Liquid): 0.06819 ± 0.0014 W/m/K and 0.0682 ± 0.0014 W/m/K
thermal conductivity (302.15 K, 48164 kPa, Liquid): 0.07319 ± 0.0015 W/m/K
thermal conductivity (302.16 K, 15975 kPa, Liquid): 0.06301 ± 0.0013 W/m/K
thermal conductivity (302.16 K, 48161 kPa, Liquid): 0.07327 ± 0.0015 W/m/K
